{
  "source": "patent US9278922B2",
  "about": "(ABBVIE INC., priority 2009, dated 2016)",
  "data": [
    {"system": "HCV 1b-Con-1 replicon", "assay": "HCV 1b-Con-1 replicon assay (luciferase reporter gene, HuH-7 cells)", "type": "cell-based, Hepatitis C virus (HCV) genotype 1b-Con1", "details": "Hepatitis C virus, Huh-7, luciferase reporter gene activity in the replicon, in the presence of 5% FBS", "units": {"EC50": "nM"}, "values": [
      {"molecule": "COC(=O)N[C@H](C(=O)N1[C@H](C(=O)Nc2ccc(CN(Cc3ccc(NC(=O)[C@@H]4C[C@@H]5CCC[C@@H]5N4C(=O)[C@@H](NC(=O)OC)C(C)(C)C)cc3)c3ccc(F)cc3)cc2)C[C@@H]2CCC[C@@H]21)C(C)(C)C", "note": "[Example 123, dimethyl ([(4-fluorophenyl)imino]bis{methanediylbenzene-4,1-diylcarbamoyl(2S,3aS,6aS)hexahydrocyclopenta[b]pyrrole-2,1(2H)-diyl[(2S)-3,3-dimethyl-1-oxobutane-1,2-diyl]})biscarbamate]", "EC50": "< 1"},
      {"molecule": "O=C(Nc1ccc(CN(Cc2ccc(NC(=O)[C@@H]3C[C@@H]4CCC[C@@H]4N3C(=O)[C@@H](c3ccccc3)N3CCCCC3)cc2)c2ccc(F)cc2)cc1)[C@@H]1C[C@@H]2CCC[C@@H]2N1C(=O)[C@@H](c1ccccc1)N1CCCCC1", "note": "[Example 124, (2S,3aS,6aS,2′S,3a′S,6a′S)-N,N′-{[(4-fluorophenyl)imino]bis(methanediylbenzene-4,1-diyl)}bis{1-[(2R)-2-phenyl-2-piperidin-1-ylacetyl]octahydrocyclopenta[b]pyrrole-2-carboxamide}]", "EC50": "< 1"},
      {"molecule": "COC(=O)N[C@H](C(=O)N1CC=C[C@H]1C(=O)Nc1ccc(CN(Cc2ccc(NC(=O)[C@@H]3C=CCN3C(=O)[C@@H](NC(=O)OC)C(C)(C)C)cc2)c2ccc(F)cc2)cc1)C(C)(C)C", "note": "[Example 125, methyl [(1S)-1-{[(2S)-2-{[4-({(4-fluorophenyl)[4-({[(2S)-1-{(2S)-2-[(methoxycarbonyl)amino]-3,3-dimethylbutanoyl}-2,5-dihydro-1H-pyrrol-2-yl]carbonyl}amino)benzyl]amino}methyl)phenyl]carbamoyl}-2,5-dihydro-1H-pyrrol-1-yl]carbonyl}-2,2-dimethylpropyl]carbamate]", "EC50": "< 1"},
      {"molecule": "O=C(Nc1ccc(CN(Cc2ccc(NC(=O)[C@@H]3COCN3C(=O)OCc3ccccc3)cc2)c2ccc(F)cc2)cc1)[C@@H]1COCN1C(=O)OCc1ccccc1", "note": "[Example 126, dibenzyl (4S,4′S)-4,4′-{[(4-fluorophenyl)imino]bis(methanediylbenzene-4,1-diylcarbamoyl)}bis(1,3-oxazolidine-3-carboxylate)]", "EC50": "10 to 100"},
      {"molecule": "O=C(Nc1ccc(CN(Cc2ccc(NC(=O)[C@@H]3C[C@H](O)CN3C(=O)[C@@H](c3ccccc3)N3CCCCC3)cc2)c2ccc(F)cc2)cc1)[C@@H]1C[C@H](O)CN1C(=O)[C@@H](c1ccccc1)N1CCCCC1", "note": "[Example 127, (2S,4S,2′S,4′S)-N,N′-{[(4-fluorophenyl)imino]bis(methanediylbenzene-4,1-diyl)}bis{4-hydroxy-1-[(2R)-2-phenyl-2-piperidin-1-ylacetyl]pyrrolidine-2-carboxamide}]", "EC50": "< 1"},
      {"molecule": "CCN[C@@H](C(=O)N1CCC[C@H]1C(=O)Nc1ccc(CN(Cc2ccc(NC(=O)[C@@H]3CCCN3C(=O)[C@H](NCC)c3ccccc3)cc2)c2ccc(F)cc2)cc1)c1ccccc1", "note": "[Example 131, (2S,2′S)-N,N′-{[(4-fluorophenyl)imino]bis(methanediylbenzene-4,1-diyl)}bis{1-[(2R)-2-(ethylamino)-2-phenylacetyl]pyrrolidine-2-carboxamide}]", "EC50": "< 1"},
      {"molecule": "CCN(C(C)C)[C@@H](C(=O)N1CCC[C@H]1C(=O)Nc1ccc(CN(Cc2ccc(NC(=O)[C@@H]3CCCN3C(=O)[C@@H](c3ccccc3)N(CC)C(C)C)cc2)c2ccc(F)cc2)cc1)c1ccccc1", "note": "[Example 132, (2S,2′S)-N,N′-{[(4-fluorophenyl)imino]bis(methanediylbenzene-4,1-diyl)}bis(1-{(2R)-2-[ethyl(1-methylethyl)amino]-2-phenylacetyl}pyrrolidine-2-carboxamide)]", "EC50": "< 1"},
      {"molecule": "COC(=O)N[C@H](C(=O)N1CCC[C@H]1C(=O)Nc1ccc(CN(Cc2ccc(NC(=O)[C@@H]3CCCN3C(=O)[C@@H](NC(=O)OC)C3CCCC3)cc2)c2ccc(F)cc2)cc1)C1CCCC1", "note": "[Example 133, dimethyl ([(4-fluorophenyl)imino]bis{methanediylbenzene-4,1-diylcarbamoyl(2S)pyrrolidine-2,1-diyl[(1S)-1-cyclopentyl-2-oxoethane-2,1-diyl]})biscarbamate]", "EC50": "< 1"},
      {"molecule": "COC(=O)N[C@@H](CCO)C(=O)N1CCC[C@H]1C(=O)Nc1ccc(CN(Cc2ccc(NC(=O)[C@@H]3CCCN3C(=O)[C@H](CCO)NC(=O)OC)cc2)c2ccc(F)cc2)cc1", "note": "[Example 134, dimethyl ([(4-fluorophenyl)imino]bis{methanediylbenzene-4,1-diylcarbamoyl(2S)pyrrolidine-2,1-diyl[(2S)-4-hydroxy-1-oxobutane-1,2-diyl]})biscarbamate]", "EC50": "1 to 10"},
      {"molecule": "CCC(CC)[C@H](NC(=O)OC)C(=O)N1CCC[C@H]1C(=O)Nc1ccc(CN(Cc2ccc(NC(=O)[C@@H]3CCCN3C(=O)[C@@H](NC(=O)OC)C(CC)CC)cc2)c2ccc(F)cc2)cc1", "note": "[Example 135]", "EC50": "1 to 10"},
      {"molecule": "COC(=O)N[C@H](C(=O)N1C[C@@H](O)C[C@H]1C(=O)Nc1ccc(CN(Cc2ccc(NC(=O)[C@@H]3C[C@H](O)CN3C(=O)[C@@H](NC(=O)OC)C(C)(C)C)cc2)c2ccc(F)cc2)cc1)C(C)(C)C", "note": "[Example 136]", "EC50": "< 1"},
      {"molecule": "O=C(Nc1ccc(CN(Cc2ccc(NC(=O)[C@@H]3CCCN3C(=O)[C@@H](c3ccccc3)N3CCCCC3)cc2)c2ccc(F)c(F)c2)cc1)[C@@H]1CCCN1C(=O)[C@@H](c1ccccc1)N1CCCCC1", "note": "[Example 137, (2S,2′S)-N,N′-{[(3,4-difluorophenyl)imino]bis(methanediylbenzene-4,1-diyl)}bis{1-[(2R)-2-phenyl-2-piperidin-1-ylacetyl]pyrrolidine-2-carboxamide}]", "EC50": "< 1"},
      {"molecule": "COC(=O)N[C@H](C(=O)N1CC[C@H](O)[C@H]1C(=O)Nc1ccc(CN(Cc2ccc(NC(=O)[C@@H]3[C@@H](O)CCN3C(=O)[C@@H](NC(=O)OC)C(C)(C)C)cc2)c2ccc(F)cc2)cc1)C(C)(C)C", "note": "[Example 141]", "EC50": "10 to 100"},
      {"molecule": "COC(=O)N[C@H](C(=O)N1C(C)CC[C@H]1C(=O)Nc1ccc(CN(Cc2ccc(NC(=O)[C@@H]3CCC(C)N3C(=O)[C@H](NC(=O)OC)C(C)(C)C)cc2)c2ccc(F)cc2)cc1)C(C)(C)C", "note": "(stereo partly drawn) [Example 142, methyl [(1R)-1-{[(2S)-2-{[4-({(4-fluorophenyl)[4-({[(2S)-1-{(2S)-2-[(methoxycarbonyl)amino]-3,3-dimethylbutanoyl}-5-methylpyrrolidin-2-yl]carbonyl}amino)benzyl]amino}methyl)phenyl]carbamoyl}-5-methylpyrrolidin-1-yl]carbonyl}-2,2-dimethylpropyl]carbamate]", "EC50": "< 1"},
      {"molecule": "COC(=O)N[C@H](C(=O)N1CCC[C@H]1C(=O)Nc1cccc(CN(Cc2cccc(NC(=O)[C@@H]3CCCN3C(=O)[C@@H](NC(=O)OC)C(C)(C)C)c2)c2ccc(F)cc2)c1)C(C)(C)C", "note": "[Example 143, dimethyl ([(4-fluorophenyl)imino]bis{methanediylbenzene-3,1-diylcarbamoyl(2S)pyrrolidine-2,1-diyl[(2S)-3,3-dimethyl-1-oxobutane-1,2-diyl]})biscarbamate]", "EC50": "< 1"},
      {"molecule": "COC(=O)N1CCOC[C@H]1C(=O)N1CCC[C@H]1C(=O)Nc1ccc(CN(Cc2ccc(NC(=O)[C@@H]3CCCN3C(=O)[C@@H]3COCCN3C(=O)OC)cc2)c2ccc(F)cc2)cc1", "note": "[Example 144, dimethyl (3S,3′S)-3,3′-{[(4-fluorophenyl)imino]bis[methanediylbenzene-4,1-diylcarbamoyl(2S)pyrrolidine-2,1-diylcarbonyl]}dimorpholine-4-carboxylate]", "EC50": "100 to 250"},
      {"molecule": "COC(=O)N[C@H](C(=O)N1CC[C@H](C)[C@H]1C(=O)Nc1ccc(CN(Cc2ccc(NC(=O)[C@@H]3[C@@H](C)CCN3C(=O)[C@@H](NC(=O)OC)C(C)(C)C)cc2)c2ccc(F)cc2)cc1)C(C)(C)C", "note": "[Example 145]", "EC50": "< 1"},
      {"molecule": "COC(=O)N[C@H](C(=O)N1CCC[C@H]1C(=O)Nc1cccc(CN(Cc2cccc(NC(=O)[C@@H]3CCCN3C(=O)[C@@H](NC(=O)OC)C(C)C)c2)c2ccc(F)cc2)c1)C(C)C", "note": "[Example 146, dimethyl ([(4-fluorophenyl)imino]bis{methanediylbenzene-3,1-diylcarbamoyl(2S)pyrrolidine-2,1-diyl[(2S)-3-methyl-1-oxobutane-1,2-diyl]})biscarbamate]", "EC50": "1 to 10"},
      {"molecule": "COC(=O)N[C@H](C(=O)N1CCC[C@H]1C(=O)Nc1cc(CN(Cc2ccc(OC)c(NC(=O)[C@@H]3CCCN3C(=O)[C@@H](NC(=O)OC)C(C)(C)C)c2)c2ccc(F)cc2)ccc1OC)C(C)(C)C", "note": "[Example 147, dimethyl ([(4-fluorophenyl)imino]bis{methanediyl(6-methoxybenzene-3,1-diyl)carbamoyl(2S)pyrrolidine-2,1-diyl[(2S)-3,3-dimethyl-1-oxobutane-1,2-diyl]})biscarbamate]", "EC50": "100 to 250"},
      {"molecule": "COC(=O)N[C@H](C(=O)N1CCC[C@H]1c1nc2cc(CN(Cc3ccc4oc([C@@H]5CCCN5C(=O)[C@@H](NC(=O)OC)C(C)C)nc4c3)c3ccccc3)ccc2o1)C(C)C", "note": "[Example 148, methyl [(1S)-1-{[(2S)-2-(5-{[({2-[(2S)-1-{(2S)-2-[(methoxycarbonyl)amino]-3-methylbutanoyl}pyrrolidin-2-yl]-1,3-benzoxazol-5-yl}methyl)(phenyl)amino]methyl}-1,3-benzoxazol-2-yl)pyrrolidin-1-yl]carbonyl}-2-methylpropyl]carbamate]", "EC50": "100 to 250"},
      {"molecule": "COC(=O)N[C@H](C(=O)N1CCC[C@H]1/C=C/c1ccc(CN(Cc2ccc(NC(=O)[C@@H]3CCCN3C(=O)[C@@H](NC(=O)OC)C(C)(C)C)cc2)c2ccccc2)cc1)C(C)(C)C", "note": "[Example 149, N-(methoxycarbonyl)-3-methyl-L-valyl-N-(4-{[{4-[(E)-2-{(2S)-1-[N-(methoxycarbonyl)-3-methyl-L-valyl]pyrrolidin-2-yl}ethenyl]benzyl}(phenyl)amino]methyl}phenyl)-L-prolinamide]", "EC50": "10 to 100"},
      {"molecule": "O=C(Nc1ccc(CN(Cc2ccc(NC(=O)[C@@H]3CCCN3C(=O)O[C@H]3CCOC3)cc2)c2ccccc2)cc1)[C@@H]1CCCN1C(=O)O[C@H]1CCOC1", "note": "[Example 150, di[(3S)-tetrahydrofuran-3-yl](2S,2′S)-2,2′-[(phenylimino)bis(methanediylbenzene-4,1-diylcarbamoyl)]dipyrrolidine-1-carboxylate]", "EC50": "10 to 100"}
    ]}
  ]
}
